Where only a bound is given, the exact number is not on record here.

5 compounds from PMC10454409, “Hybrids of Sterically Hindered Phenols and Diaryl Ureas: Synthesis, Switch from Antioxidant Activity to ROS Generation and Induction of Apoptosis” (International Journal of Molecular Sciences, 2023) can be followed below.

One data set is described as follows: Cyclic voltammetry. Format: physicochemical. To be noted: in CH3CN vs. Ag/AgCl; GC electrode; 0.1 V/s. The source says:
Electrochemical measurements were taken on a BASi Epsilon EClipse electrochemical analyzer (West Lafayette, IN, USA). The program concentrated cEpsilon-ECUSB-V200 waves at the potential scan rate t = […] in a CH3CN 0.1 M solution of Bu4NBF4 at 295 K. A glassy carbon working electrode (ð = 3 mm) embedded in Teflon and a Pt wire as the counter electrode were used in the electrochemical cell. Before each measurement, the surface of the working electrode was mechanically polished. Ag/AgCl (0.01 M KCl) was used as a reference electrode. The reference electrode was connected with the cell solution by a modified Luggin capillary filled with the supporting electrolyte solution (0.1 M Bu4NBF4 in CH3CN). Thus, the reference electrode assembly had two compartments, each terminated with an ultra-fine glass frit to separate the AgCl from the analyte. The scan rate was 100 mV∙s^−1. The measurements were performed in a temperature-controlled electrochemical cell (volume from 5 mL to 20 mL) in an inert gas atmosphere (N2).
Figure 10 Cyclic voltammogram for the oxidation of SHPs. Conditions: 0.1 mM CH3CN (0.1 M Bu4NBF4); potentials vs. Ag/AgCl; work electrode: GC; scan rate: 0.1 V/s.

Data set [1] has as its system M-HeLa cells (human cervix epithelioid carcinoma). The experiment in a line: MTT cytotoxicity test, M-HeLa. The format is cell-based. Particulars: Homo sapiens, M-HeLa; MTT test; 24 h incubation per text, 48 h per method. An excerpt:
(§1) For the experiments, we used tumor cell cultures M-HeLa clone 11 (epithelioid carcinoma of the cervix, subline HeLa., clone M-HeLa), HuTu 80 (human duodenal adenocarcinoma) and MCF7 (human breast adenocarcinoma (pleural fluid)) from the collection of the Institute of Cytology, Russian Academy of Sciences (St. Petersburg); human liver cells (Chang liver) from the collection of the Research Institute of Virology at the Russian Academy of Medical Sciences (Moscow); and SH-SY5Y (neuroblastoma)from the Laboratory of Tumor Cell Genetics at the Scientific Research Institute of Carcinogenesis N.N. Blokhin National Medical Research Center of Oncology.
(§2) The cytotoxic effect on cells was determined using the colorimetric method of cell proliferation—the MTT test. NADP-H-dependent cellular oxidoreductase enzymes can, under certain conditions, reflect the number of viable cells. These enzymes are able to reduce the tetrazolium dye (MTT)-3-(4,5-dimethylthiazol-2-yl)-2,5-diphenyl-tetrazolium bromide to insoluble blue-violet formazan, which crystallizes inside the cell. The amount of formazan formed is proportional to the number of cells with active metabolism.
(§3) Cells were seeded on a 96-well Nunc plate at a concentration of 5 × 10^3 cells per well in a volume of 100 μL of medium and cultured in a CO2 incubator at 37 °C until a monolayer was formed. […] After 48 h, the nutrient medium was removed from the plates and 100 µL of the nutrient medium without serum with MTT at a concentration of 0.5 mg/mL was added and incubated for 4 h at 37 °C. Formazan crystals were […] 100 µL of DMSO in each well. Optical density was recorded at 540 nm on an in vitro logic microplate reader (Russia). The experiments for all compounds were repeated in triplicate.
(§4) IC50 values were estimated using the Quest Graph IC50 Calculator (AAT Bioquest, Inc., Sunnyvale, CA, USA) (Version 2022) (accessed on 25 June 2022).
(Tetrazolium dyes change colour on reduction, which living cells bring about.)

For data set [2], the system named is MCF-7 cells (human breast adenocarcinoma). The experiment in a line: MTT cytotoxicity test, MCF-7. To be noted: 24 h incubation per text, 48 h per method. The format is cell-based. Here is the method:
as §2
Formazan crystals were added to 100 µL of DMSO in each well. Optical density was recorded at 540 nm on an in vitro logic microplate reader (Russia). The experiments for all compounds were repeated in triplicate.

The subject of data set [3] is HuTu 80 cells (human duodenal adenocarcinoma). As to the kind of experiment: MTT cytotoxicity test, HuTu 80. Format: cell-based. To be noted: Homo sapiens, HuTu80, read-out: IC50, HuTu 80.
Source text: as §1, §2, §3, §4

The subject of data set [4] is SH-SY5Y cells (neuroblastoma). The experiment in a line: MTT cytotoxicity test, SH-SY5Y. The format is cell-based. To be noted: Homo sapiens, SH-SY5Y; MTT test; 24 h incubation per text, 48 h per method.
Source text: as §1, §2, §3, §4

Data set [5] has as its system Chang liver cells (human liver cells, normal cell line). As to the kind of experiment: MTT cytotoxicity test, Chang liver normal cells. Format: cell-based. Particulars: 48 h incubation.
Source text: as §1, §2, §3, §4

In another data set the test system is HuTu 80 cells. The experiment in a line: Intracellular ROS level, CellROX Deep Red flow cytometry. The format is cell-based, human. To be noted: 48 h incubation, maximum concentration (IC50). For orientation: In flow cytometry, cells or beads pass a laser one at a time.
Data set [6] relates to SH-SY5Y neuroblastoma cells. As to the kind of experiment: Glycolysis stress test (Seahorse XF96e, ECAR). The format is cell-based. Particulars: compound 100 µM; for Glycolysis: rate of extracellular acidification after saturating glucose: glucose 10 mM; for Glycolytic capacity: oligomycin 1 µM. Here is the method: We studied the ability of compounds to inhibit aerobic glycolysis using the Agilent Seahorse XF96e Analyzer (Seahorse Bioscience, North Billerica, MA, USA) assay of cellular metabolism on the level of proton production in samples examined on the SH-SY5Y neuroblastoma cell line using glycolysis stress tests. The extracellular acidification rate of the medium was measured in real time, which allowed us to assess the intensity of glycolysis in the cells by recording the main parameters of glycolytic function: basal glycolysis, glycolytic capacity and glycolytic reserve. Glycolytic capacity describes the maximum amount of glycolysis/glucose breakdown the cells can perform acutely, whereas glycolytic reserve is defined as the difference between the basal and maximal glycolytic capacity.
The ability of synthesized compounds to modulate […] glycolysis was studied using the Agilent Seahorse XF96e Analyzer (Seahorse Bioscience, Billerica, MA, USA) on the neuroblastoma SH-SY5Y cell line (40,000 cells per well) as described earlier.
Glycolysis was measured by subtracting the maximum rate of extracellular acidification of the medium before glucose injection from the maximum rate before oligomycin injection. Glycolytic capacity was measured by subtracting the maximum velocity value before glucose injection from the maximum velocity value after oligomycin injection. Glycolytic reserve was defined as the difference between glycolytic capacity and glycolysis.
Figure 6 Effect of synthesized compounds on the glycolytic profile of (a–c) SH-SY5Y tumor cells and (d) calculated parameters of glycolytic function. […] The concentration of compounds was 100 µM, glucose—10 mM, oligomycin—1 µM и 2-fluoro-2-deoxy-D-glucose—25 mM. Data are presented as mean±error of the mean (n = 3). Statistical significance was assessed using one-way ANOVA and Dunnett’s multiple comparison tests, where **** p < 0.0001, *** p < 0.001, ** p < 0.01 and * p < 0.05 vs. control.

For data set [7], the system named is isolated rat liver mitochondria. The experiment in a line: Membrane potential of isolated mitochondria (Safranin A). The format is biochemical. Here is the method:
The membrane potential of rat […] mitochondria was measured with a Victor 3 plate analyzer (Perkin Elmer, Hamburg, Germany) using the potential-dependent indicator Safranin A [57]. The mitochondrial preparation was diluted in a buffer containing mannitol (225 mM) (Dia-M, Moscow, Russia), sucrose (75 mM) (Sigma Aldrich, Saint Louis, MO, USA), HEPES (10 mM) (Gibco, Scotland, UK), EGTA (20 µM) (Dia-M, Moscow, Russia) and KH2PO4 (1 mM) at pH = 7.4 at a ratio of 0.5 mg of protein to 1 mL of medium. Safranin A (5 µM) was added to the suspension immediately before the start of the measurement. The organelles were then energized by potassium succinate (5 mM) in the presence of rotenone (1 µM). Mitochondrial pore opening was induced by the addition of CaCl2 (25 µM).
Figure 8 Effect of the synthesized compounds on the membrane potential of rat liver mitochondria. (a) Kinetic lines of transmembrane potential changes at λex = 458 nm and λem = 590 nm. The concentration of the test substances was 100 µM. (b) Calculated parameters of % depolarization relative to control samples. Statistical significance was assessed using one-way ANOVA and Dunnett’s multiple comparison tests, where **** p < 0.0001 vs. control. (c) Concentration dependence of the effects of 11b and 17b on mitochondrial membrane potential. The concentration of the test substances was from 20 to 200 µM. Concentration of ions; Ca^2+—25 µM. Mitochondria were energized by potassium succinate and rotenone. Data are presented as mean±error of the mean (n = 3).

On to `Cc1cc(C(C)(C)C)c(O)c(C(C)(C)C)c1` [ionol], for which, in the data set “Cyclic voltammetry”, the Oxidation potential is given as ~1.45 V.

For the compound `CCOP(=O)(OCC)C(c1cc(C(C)(C)C)c(O)c(C(C)(C)C)c1)c1ccc(NC(=O)Nc2ccc(Cl)cc2)nc1NC(=O)Nc1ccc(Cl)cc1` (centres unmarked) [11b], the IC50 in [1] was 70 ± 5.5 µM; in data set [2] (Homo sapiens, MCF7, MTT test) it was 63.1 ± 4.9 µM; in data set [3], 25.7 µM; in [4] it was 46.4 ± 0.92 µM; in [5], 99.4 ± 7.8 µM. Besides, the “Intracellular ROS level” value in the data set with HuTu 80 cells is on record as 670.7 ± 7.2%. Further, in [6], the Glycolytic reserve result is “ability to decrease glycolytic reserves”. For the same compound, the “Glycolysis: rate of extracellular acidification after saturating glucose” value in data set [6] is “decrease in the rate of extracellular acidification”. For the same compound, in [6], the Glycolytic capacity result is “decrease in glycolytic capacity”. The “Depolarization of mitochondrial membrane” value in data set [7] (isolated mitochondria, compound 100 μM) came to 50%. Moreover, the “Depolarization relative to control (class in Figure 8b)” value in data set [7] (isolated rat liver mitochondria, compound 100 µM) is “High Depolarization”.

In turn, `COP(=O)(OC)C(c1cc(C(C)(C)C)c(O)c(C(C)(C)C)c1)c1ccc(NC(=S)Nc2ccccc2)cc1NC(=S)Nc1ccccc1` (centres unmarked) [19a] gave a melting point of 207 to 208 °C. Besides, the IC50 in data set [1] was > 70 µM. The IC50 in [2] (Homo sapiens, MCF7, MTT test) is > 70 µM. Further, the IC50 in data set [3] is > 70 µM. In addition, in data set [4], the IC50 is > 70 µM.

With `CCOP(=O)(OCC)C(c1cc(C(C)(C)C)c(O)c(C(C)(C)C)c1)c1ccc(NC(=O)Nc2ccc(C)cc2)cc1NC(=O)Nc1ccc(C)cc1` (centres unmarked) [14b], the half-maximal inhibitory concentration (IC50) in data set [1] is 14.1 ± 1.2 µM; in data set [2] (Homo sapiens, MCF7, MTT test) it was < 15 µM; in data set [2] (MTT test), 13.7 ± 1.2 µM; in [3] it was 15.7 ± 1.3 µM; in data set [4] it was 27 ± 1.1 µM; in [5], 21 ± 1.8 µM. Moreover, the “Glycolysis: rate of extracellular acidification after saturating glucose” value in data set [6] is recorded as “decrease in the rate of extracellular acidification”. In addition, the Glycolytic capacity result in [6] is recorded as “decrease in glycolytic capacity”.

As for `O=C(Nc1ccccc1)Nc1ccccc1` [diphenyl urea], the Oxidation potential in the data set “Cyclic voltammetry” is 1.60 V.

Broadly, the IC50 is the concentration at which inhibition is half-maximal. The term melting point denotes the temperature of the solid-liquid transition.
